Test results as given in US9180107B2 (NANOPHARMACEUTICALS LLC, priority 2009, dated 2015).

Assays:
[1] = system: Human adenoid cystic carcinoma TGS112T cells; assay: [3H]-thymidine incorporation; type: cell-based
Experimental: TGS112T cells were seeded in 24-well trays and exposed to 10% hormone-depleted FBS-supplemented medium for 2 d, then treated with 0.25% hormone-depleted FBS-supplemented medium prior to starting the experiments. Aliquots of cells were treated with T4, tetrac or nano-tetrac as indicated, as well as 1 μCi [^3H]-thymidine (final concentration, 13 nM) for 24 h. Cells were then washed twice with cold PBS. TCA (5%, 1 mL) was added and the plate was held at 4° C. for 30 min. The precipitate was washed twice with cold ethanol; 2% SDS (1 mL) was added to each well and the TCA-precipitable radioactivity was quantitated in a liquid scintillation counter.
(§1) Human adenoid cystic carcinoma TGS112T cells were cultured in medium that contained 0.25% hormone-stripped serum for 2 d and then treated with 10^−7 M tetrac or nano-tetrac for 30 min prior institution of 10^−7 M T4 treatment for 24 h. Nuclear proteins were separated by SDS-PAGE followed by western blot analysis with proliferating-cell nuclear antigen (PCNA) antibody. Thyroid hormone-induced PCNA accumulation was inhibited by tetrac. (See FIG. 6A). […] (See FIG. 6A). Inhibition of thyroid hormone-induced proliferation was confirmed by inhibition by tetrac and nano-tetrac of thyroid hormone-induced accumulation and [^3H]-thymidine incorporation. (See FIG. 6B). […] (See FIG. 6B). […] The effect of nano-tetrac and tetrac on cell proliferation was examined by counting TGS112T cells which were treated daily with 10^−6 M tetrac or 10^−6 M nano-tetrac. […] (See FIG. 6C).

[2] = system: Human adenoid cystic carcinoma TGS112T cells; assay: PCNA western blot (thyroid hormone-induced proliferation); type: cell-based
From the text: The techniques have been described in a number of publications. (See Davis et al., 2006. Cancer Res. 66:7270-7275; Lin et al., 2007. Steroids. 72:180-187; Lin et al., 2008. Carcinogenesis. 29:62-69; and Davis et al., 2004. Circ Res. 94:1500-1506, each of which is herein incorporated by reference in its entirety). Nucleoproteins were separated on discontinuous SDS-PAGE (9% gels) and the proteins transferred by electroblotting to nitrocellulose membranes (Millipore, Bedford, Mass.). After blocking with 5% milk in Tris-buffered saline containing 0.1% Tween, the membranes were incubated with selected primary antibodies overnight. The secondary antibodies were either goat anti-rabbit IgG (1:1000, Dako, Carpenteria, Calif.) or rabbit anti-mouse IgG (1:1000, Dako), depending upon the origin of the primary antibody. Immunoreactive proteins were then detected by chemiluminescence.
as §1

TGS112T cells = assay: Cell proliferation by cell counting; type: cell-based, human; settings: treated daily with 10^−6 M
Experimental: FIG. 6 is a series of graphs showing the effects of tetrac and nano-tetrac in human adenoid cystic carcinoma (TGS112T). In FIG. 6A, TGS112T cancer cells were treated with 10^−7M T4 in the presence or absence of 10^−7M tetrac for 24 h. T4-induced PCNA expression was inhibited by tetrac. In FIG. 6B, TGS112T cancer cells were treated with 10^−7 M T4 in the presence or absence of 10^−7 M tetrac or nano-tetrac, daily and 1 μCi [^3H]-thymidine (final concentration, 13 nM) was added for 24 h. […] In FIG. 6C, TGS112T cells were treated daily with 10^−6 M tetrac or nano-tetrac. Cells were harvested at the time points as indicated. Total cell numbers taken after each treatment were used as indicator for tetrac- or nano-tetrac-induced anti-proliferation.
Human adenoid cystic carcinoma TGS112T cells were cultured in medium that contained 0.25% hormone-stripped serum for 2 d and then treated with 10^−7 M tetrac or nano-tetrac for 30 min prior institution of 10^−7 M T4 treatment for 24 h. Nuclear proteins were separated by SDS-PAGE followed by western blot analysis with proliferating-cell nuclear antigen (PCNA) antibody. Thyroid hormone-induced PCNA accumulation was inhibited by tetrac. (See FIG. 6A). […] (See FIG. 6A). Inhibition of thyroid hormone-induced proliferation was confirmed by inhibition by tetrac and nano-tetrac of thyroid hormone-induced accumulation and [^3H]-thymidine incorporation. […]

[3] = system: monkey kidney epithelial CV-1 cells; assay: Proliferation of non-malignant cells; type: cell-based, African green monkey; settings: 10^−6M daily for 7 days
Experimental: FIG. 9 is a series of graphs showing the comparison of nano-tetrac and tetrac on cell proliferation in non-malignant cells. CV-1 cells (FIG. 9A) and 293 T cells (FIG. 9B) were treated daily with 10^−6 M tetrac or nano-tetrac. Cells were harvested at the time points indicated. Total cell numbers taken after each treatment were used as an indicator for tetrac- or nano-tetrac-induced anti-proliferation.
In order to confirm that tetrac and nano-tetrac only suppress cell proliferation in cancer cells, tetrac and nano-tetrac were also examined for potential anti-proliferative effects on immortalized non-malignant cells, using monkey kidney epithelial CV-1 cells and human embryonic kidney 293T cells. The cells were treated daily with either 10^−6M tetrac or 10^−6M nano-tetrac for 7 days, then were harvested, counted and examined microscopically.

O=C(O)Cc1cc(I)c(Oc2cc(I)c(O)c(I)c2)c(I)c1 [tetrac, Tetraiodothyroacetic acid]
reduction of T4-induced thymidine incorporation ([1]; 10^−7 M with 10^−7 M T4, 24 h): 5 fold | effect of agent alone on thymidine incorporation ([1]; 10^−7 M, 24 h): stimulated thymidine incorporation | Thyroid hormone-induced PCNA accumulation ([2]; 10^−7 M tetrac, 10^−7 M T4, 24 h): inhibited | Proliferation of TGS112T cells (agent alone) ([2]; 10^−7 M, 24 h): little effect alone | cell count after 7 d (TGS112T cells): 3.65×10^8 cells | change in cell numbers and morphology vs untreated control [3]: no significant change
